Laboratory results reported in ChEMBL document CHEMBL1127707, “The use of the GRID program in the 3-D QSAR analysis of a series of calcium-channel agonists” (J Med Chem, 1994).

Assay: CMR value (relative to BAY K 8644)
Assay type: ADME

Point of comparison: `COC(=O)c1c(C)[nH]c(C)c1C(=O)c1ccccc1-c1ccccc1`, CMR 9.6. Against it:
- COC(=O)c1c(C)[nH]c(C)c1C(=O)c1ccccc1[S+]([O-])c1ccccc1 (stereo unspecified) — higher, 10.44
- COC(=O)c1c(C)[nH]c(C)c1C(=O)c1ccccc1[S+]([O-])Cc1ccccc1 (stereo unspecified) — higher, 10.9
- COC(=O)c1c(C)[nH]c(C)c1C(=O)c1ccccc1Oc1ccccc1 — higher, 9.75
- COC(=O)c1c(C)[nH]c(C)c1C(=O)c1ccccc1Cc1ccc(N)cc1 — higher, 10.43
- COC(=O)c1c(C)[nH]c(C)c1C(=O)c1ccccc1Nc1ccccn1 — higher, 9.75
- COC(=O)c1c(C)[nH]c(C)c1C(=O)c1ccccc1Oc1ccc([N+](=O)[O-])cc1 — higher, 10.47
- COC(=O)c1c(C)[nH]c(C)c1C(=O)c1ccccc1Cc1ccccc1[N+](=O)[O-] — higher, 10.78
- COC(=O)c1c(C)[nH]c(C)c1C(=O)c1ccccc1OCc1ccccc1 — higher, 10.21
- COC(=O)c1c(C)[nH]c(C)c1C(=O)c1ccccc1SCc1ccccc1 — higher, 10.87
- COC(=O)c1c(C)[nH]c(C)c1C(=O)c1ccc(C)cc1C — lower, 8.01
- COC(=O)c1c(C)[nH]c(C)c1C(=O)c1ccc(F)cc1Cc1ccc(F)cc1 — higher, 10.09
- COC(=O)c1c(C)[nH]c(C)c1C(=O)c1ccccc1NC1CCCCC1 — higher, 10.06
- COC(=O)c1c(C)[nH]c(C)c1C(=O)c1ccccc1Cc1ccc(F)cc1 — higher, 10.08
- COC(=O)c1c(C)[nH]c(C)c1C(=O)c1ccc(F)cc1Br — lower, 7.877
- COC(=O)c1c(C)[nH]c(C)c1C(=O)c1ccccc1OS(=O)(=O)c1ccc(C)cc1 — higher, 10.62
- COC(=O)c1c(C)[nH]c(C)c1C(=O)c1ccccc1Sc1ccc([N+](=O)[O-])cc1 — higher, 11.13
- COC(=O)c1c(C)[nH]c(C)c1C(=O)c1ccccc1Nc1ccccc1 — higher, 9.96
- COC(=O)c1c(C)[nH]c(C)c1C(=O)c1ccc([N+](=O)[O-])cc1Cl — lower, 8.3
- COC(=O)c1c(C)[nH]c(C)c1C(=O)c1ccccc1Cc1ccc([N+](=O)[O-])cc1 — higher, 10.79
- COC(=O)c1c(C)[nH]c(C)c1C(=O)c1ccccc1C — lower, 7.58
- COC(=O)c1c(C)[nH]c(C)c1C(=O)c1ccccc1F — lower, 7.1
- COC(=O)c1c(C)[nH]c(C)c1C(=O)c1ccccc1I — lower, 8.39
- COC(=O)c1c(C)[nH]c(C)c1C(=O)c1ccccc1CCc1ccccc1 — higher, 10.52
- COC(=O)c1c(C)[nH]c(C)c1C(=O)c1ccccc1S(=O)(=O)Cc1ccccc1 — higher, 10.93
- COC(=O)c1c(C)[nH]c(C)c1C(=O)c1ccccc1C(=O)Oc1ccccc1O — higher, 10.4
- COC(=O)c1c(C)[nH]c(C)c1C(=O)c1ccccc1Sc1ccccc1 — higher, 10.4
- COC(=O)c1c(C)[nH]c(C)c1C(=O)c1ccccc1CC1CCCCC1 — higher, 10.15
- COC(=O)c1c(C)[nH]c(C)c1C(=O)c1ccc(F)cc1Cc1ccccc1 — higher, 10.08
- COC(=O)c1c(C)[nH]c(C)c1C(=O)c1ccc(Cl)cc1Cl — lower, 8.07
- COC(=O)c1c(C)[nH]c(C)c1C(=O)c1ccccc1 — lower, 7.08
- COC(=O)c1c(C)[nH]c(C)c1C(=O)c1ccccc1OC — lower, 7.7
- COC(=O)c1c(C)[nH]c(C)c1C(=O)c1ccccc1Cl — lower, 7.58
- COC(=O)c1c(C)[nH]c(C)c1C(=O)c1ccccc1C(F)(F)F — lower, 7.6
- COC(=O)c1c(C)[nH]c(C)c1C(=O)c1ccccc1Cc1ccccc1 — higher, 10.06
- COC(=O)c1c(C)[nH]c(C)c1C(=O)c1ccccc1Br — lower, 7.86
